# Entries after “also recorded” stand apart in the source; their conditions may differ. Where two headings read alike, the source gives them in different places.
# Legend:
# His-DrCK1δA = molecular target: T1, His-DrCK1δA (Danio rerio, UniProt Q7T2E3); assay: in vitro kinase assay, α-casein phosphorylation with [γ-32P]-ATP, standard conditions; assay type: biochemical, zebrafish (Danio rerio); conditions: Michaelis-Menten, ATP 0.5-250 µM
# T1 construct: made in house; host or cells: E. coli Rosetta 2 (DE3)
# T1 sequence (Q7T2E3 1-403): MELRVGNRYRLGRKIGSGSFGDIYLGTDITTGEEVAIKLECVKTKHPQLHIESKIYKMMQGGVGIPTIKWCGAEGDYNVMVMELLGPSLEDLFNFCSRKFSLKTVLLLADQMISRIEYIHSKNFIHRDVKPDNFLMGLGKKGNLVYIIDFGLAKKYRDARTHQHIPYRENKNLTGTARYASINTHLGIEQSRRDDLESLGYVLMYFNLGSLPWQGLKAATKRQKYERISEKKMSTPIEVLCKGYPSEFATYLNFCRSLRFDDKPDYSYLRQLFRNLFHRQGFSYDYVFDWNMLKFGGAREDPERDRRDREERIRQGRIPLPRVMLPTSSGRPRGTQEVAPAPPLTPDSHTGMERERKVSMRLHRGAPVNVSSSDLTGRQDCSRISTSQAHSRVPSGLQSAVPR
# Experimental: (§1) Each in vitro kinase reaction was performed in a total volume of 15 µL containing 25 mM Tris-HCl (pH 7.0), 10 mM MgCl2, 100 µM EDTA, 2.8 µM of the substrate α-casein and 0.4 pmol [γ-^32P]-ATP at 30°C. […] Reactions were stopped by adding 3 µL of 5x SDS loading buffer and incubating at 95°C for 5 min. Proteins were separated by SDS-PAGE and stained with Coomassie Brilliant Blue R250 (Waldeck GmbH & Co. KG, Muenster, Germany). Autoradiography visualized the incorporation of radioactively labelled γ-phosphate into the proteins. A quantitative analysis of the radioactive signal was performed by excising the proteins from dried gels and measuring phosphate incorporation via Cherenkov counting (Beckmann Scintillation Counter). For the determination of the initial velocity region, a linear regression was performed. Thereby, the number of included data-points was decreased stepwise, and the point of time with the highest maximum coefficient of determination (R ^2) was chosen as the kinase-specific standard reaction time. For determination of the maximal velocity (Vmax) and Michaelis constant (Km) of ATP, various ATP concentrations in a range from 0.5 to 250 µM were tested. Raw data was used for the calculation of enzyme velocity (V) in [pmol/min]. Then, V was plotted over substrate (ATP) concentration and fitted to the Michaelis-Menten model via GraphPad Prism 8 (GraphPad Software, La Jolla, CA, United States). According to the Michaelis-Menten curve, Km, which is the concentration of the substrate, that is needed to obtain half Vmax, was calculated. For determination of IC50 values, the scintillation data measured in cpm was transformed to pmol of transferred phosphate. The data was then transformed logarithmically (X = log(X)), normalized to DMSO (100%) and zero (0%) before fitting to sigmoidal dose-response curves with variable slope with nonlinear regression using GraphPad Prism 7.
# (§2) In compliance with the established standard conditions the kinase assays were performed in the presence of 20 µM of the respective inhibitor (Figure 7).
# (§3) Next, in vitro kinase assays were performed in absence and presence of the respective SMI at different concentrations (ranging from 13 to 26667 nM). The kinase activity of the inhibitor-treated samples was normalized to the DMSO-control and plotted against the inhibitor concentration (Figure 10).
# His-DrCK1δB = molecular target: T2, His-DrCK1δB (Danio rerio, UniProt Q6P3K7); assay: as above; assay type: biochemical, zebrafish (Danio rerio); conditions: Michaelis-Menten, ATP 0.5-250 µM
# T2 construct: made in house; host or cells: E. coli Rosetta 2 (DE3)
# T2 sequence (Q6P3K7 1-409): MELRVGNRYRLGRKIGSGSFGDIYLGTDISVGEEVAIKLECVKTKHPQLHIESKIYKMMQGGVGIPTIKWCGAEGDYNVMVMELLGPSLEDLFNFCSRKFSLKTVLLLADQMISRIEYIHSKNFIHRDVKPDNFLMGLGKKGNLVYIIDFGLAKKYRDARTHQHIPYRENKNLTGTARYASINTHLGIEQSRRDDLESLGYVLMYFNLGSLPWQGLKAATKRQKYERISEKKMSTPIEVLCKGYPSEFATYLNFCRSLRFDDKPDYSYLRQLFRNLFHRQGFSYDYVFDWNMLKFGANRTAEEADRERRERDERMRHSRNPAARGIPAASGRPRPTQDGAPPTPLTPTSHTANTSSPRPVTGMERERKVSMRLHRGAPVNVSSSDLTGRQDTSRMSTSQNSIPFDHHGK
# Experimental: as §1, §2, §3
# GST-CK1ε = molecular target: T3, GST-CK1ε (Homo sapiens, UniProt P49674); assay: as above; assay type: biochemical; conditions: Michaelis-Menten, ATP 0.5-250 µM
# T3 construct: made in house; host or cells: E. coli Rosetta 2 (DE3)
# T3 sequence (P49674 whole entry): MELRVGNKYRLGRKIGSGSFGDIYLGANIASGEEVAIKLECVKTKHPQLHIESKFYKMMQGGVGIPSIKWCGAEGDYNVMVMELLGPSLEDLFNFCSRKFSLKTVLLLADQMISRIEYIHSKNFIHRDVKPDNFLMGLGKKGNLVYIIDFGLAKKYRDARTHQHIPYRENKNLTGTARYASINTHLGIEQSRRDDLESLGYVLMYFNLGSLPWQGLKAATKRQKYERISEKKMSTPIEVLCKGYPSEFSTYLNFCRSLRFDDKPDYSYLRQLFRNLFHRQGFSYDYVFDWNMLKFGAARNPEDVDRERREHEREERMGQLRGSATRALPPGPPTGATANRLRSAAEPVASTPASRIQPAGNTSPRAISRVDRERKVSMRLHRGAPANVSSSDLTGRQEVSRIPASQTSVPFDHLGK
# Experimental: as §1, §2
# His-DrCK1ε = assay: as above; assay type: biochemical, zebrafish (Danio rerio); conditions: Michaelis-Menten, ATP 0.5-250 µM
# Experimental: as §1, §2
# GST-humCK1δ^TV1 = molecular target: T4, GST-humCK1δ^TV1 (Homo sapiens, UniProt P48730); design: method as in Roth et al., 2021; conditions: previously established, ref Roth et al., 2021; read-out: Km(ATP); cited from earlier work
# T4 construct: made in house; host or cells: E. coli Rosetta 2 (DE3)
# T4 sequence (P48730 whole entry): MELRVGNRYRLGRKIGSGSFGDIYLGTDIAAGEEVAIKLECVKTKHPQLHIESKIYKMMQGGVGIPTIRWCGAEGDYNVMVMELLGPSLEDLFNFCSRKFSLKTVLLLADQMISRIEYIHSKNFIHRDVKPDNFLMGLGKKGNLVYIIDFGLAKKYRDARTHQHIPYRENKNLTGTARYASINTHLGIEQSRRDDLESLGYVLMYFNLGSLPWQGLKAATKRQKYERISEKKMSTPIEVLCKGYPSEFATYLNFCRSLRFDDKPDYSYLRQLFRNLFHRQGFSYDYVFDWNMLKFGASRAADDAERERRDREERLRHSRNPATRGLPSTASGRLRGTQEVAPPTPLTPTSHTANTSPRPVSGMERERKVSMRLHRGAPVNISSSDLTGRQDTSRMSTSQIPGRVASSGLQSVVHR
# CK1δ = test system: CK1δ; design: method as in Bischof et al., 2012; Bibian et al., 2013; conditions: ref Bischof et al., 2012; Bibian et al., 2013; cited from earlier work
# M28FCK1δ (rat) = M28FCK1δ (rat) (Rattus norvegicus, UniProt Q06486, M82F); assay: initial IC50 determination in in vitro kinase assays, prior to standardization; assay type: biochemical
# M28FCK1δ (rat), sequence (Q06486 whole entry M82F): as the sequence (P48730 whole entry) above, with M82F, I381V counted along it
# CK1δ (rat) = CK1δ (rat) (Rattus norvegicus, UniProt Q06486); assay: as above; assay type: biochemical; conditions: not published
# CK1δ (rat), sequence (Q06486 whole entry): as the sequence (P48730 whole entry) above, with I381V counted along it
# Experimental: (§4) The SMIs used in this study (summarized in Supplementary Table S2) were selected based on their inhibitory capacity toward CK1δ in vitro, whereby a broad range of inhibitors with varying efficiency were included. The determination of IC50-values was conducted prior to the standardization workflow establishment. Zebrafish embryos treated with 20 µM of the respective compound were phenotypically analyzed.
# (§5) Supplementary Table 6: List of the inhibitors that were selected for the in vivo screening of zebrafish embryonic development. The compounds were selected based on their ability to inhibit CK1δ in in vitro kinase assays. The initial IC50-values were determined prior to the establishment of the standardized in vitro kinase assay protocol. The Supplementary Table summarizes, whether the zebrafish embryos presented an abnormal phenotype upon inhibitor treatment. The inhibitors were added to the zebrafish medium in a concentration of 20 µM.
# CK1ε = CK1ε (Homo sapiens, UniProt P49674); assay: as above; assay type: biochemical; conditions: not published, read-out: IC50 values wtCK1ε
# CK1ε, sequence (P49674 whole entry): as the sequence (P49674 whole entry) above
# Experimental: as §4, §5
# CK1δ (TV1) = CK1δ (TV1) (Homo sapiens, UniProt P48730); assay: initial IC50 determination in in vitro kinase assays, prior to standardization; assay type: biochemical; conditions: not published
# CK1δ (TV1), sequence (P48730 whole entry): as the sequence (P48730 whole entry) above
# Experimental: as §4, §5
# CK1δ (TV2) = molecular target: T5, CK1δ (TV2) (Homo sapiens, UniProt P48730); assay: as above; assay type: biochemical; conditions: not published
# T5 sequence (P48730 1-409 isoform P48730-2): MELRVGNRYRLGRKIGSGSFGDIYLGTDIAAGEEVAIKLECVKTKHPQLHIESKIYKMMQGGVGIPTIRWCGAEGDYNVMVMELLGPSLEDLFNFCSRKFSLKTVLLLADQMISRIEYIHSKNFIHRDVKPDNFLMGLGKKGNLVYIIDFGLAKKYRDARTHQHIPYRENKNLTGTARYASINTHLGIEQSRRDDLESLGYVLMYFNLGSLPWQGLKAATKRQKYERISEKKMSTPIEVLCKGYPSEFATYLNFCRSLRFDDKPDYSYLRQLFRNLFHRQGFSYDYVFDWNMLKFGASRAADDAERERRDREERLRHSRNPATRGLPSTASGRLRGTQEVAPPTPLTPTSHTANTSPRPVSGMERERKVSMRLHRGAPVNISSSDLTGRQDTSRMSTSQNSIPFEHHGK
# Experimental: as §4, §5
# human PKCα = test system: human PKCα; design: method as in Qiao et al., 2021; conditions: ref Qiao et al., 2021; cited from earlier work
# zebrafish PKCα = test system: zebrafish PKCα; design: method as in Qiao et al., 2021; conditions: ref Qiao et al., 2021; cited from earlier work
# csnk1da (CK1δA) = assay: morpholino knockdown in zebrafish embryos, phenotype; assay type: in vivo, zebrafish (D. rerio); conditions: 400 µM injected, 72 hpf
# From the text: The TüAB wildtype strain was used for all experiments. […] DMSO served as solvent control. […] Embryos were immobilized in 2.5% methylcellulose.
compound,measurement,setting,value
Nc1ncnc2c1ncn2[C@@H]1O[C@H](COP(=O)(O)OP(=O)(O)OP(=O)(O)O)[C@@H](O)[C@H]1O [ATP],Km,His-DrCK1δA,12 µM
same,Km,His-DrCK1δB,5.31 µM
same,Km,GST-CK1ε,15.4 µM
same,Km,His-DrCK1ε,14.5 µM
same,Km,GST-humCK1δ^TV1,6 µM
O=C(Nc1nc2ccc(C(F)(F)F)cc2[nH]1)c1csc(NC(=O)c2ccccc2OC(F)(F)F)n1 [Bischof-5],50% inhibitory concentration (IC50) values,CK1δ,double-digit nanomolar range
"COc1cc(Cn2c(SCC(=O)Nc3nc4ccc(C(F)(F)F)cc4s3)nc3c(c2=O)SCC3)cc(OC)c1 [G1-4, 2-((3-(3,5-Dimethoxybenzyl)-4-oxo-3,4,6,7-tetrahydrothieno[3,2-d]pyrimidin-2-yl)thio)-N-(6-(trifluormethyl)benzo [d]thiazol-2-yl)acetamid]",IC50,"M28FCK1δ (rat); prior to standardization, not published, read-out: IC50 values M28FCK1δ (rat)",160 nM
same,IC50,CK1δ (rat),380 nM
same,IC50,CK1ε,3200 nM
same,Phenotypic changes,"zebrafish embryos; zebrafish, in vivo",None observed
same,Phenotypic changes (with severity) after treatment of zebrafish embryos with 20 µM inhibitor,"zebrafish embryos; zebrafish, in vivo",No
"CC(C)n1c(SCC(=O)Nc2nc3ccc(C(F)(F)F)cc3s2)nc2c(c1=O)SCC2 [G1-5, 2-((3-Isopropyl-4-oxo-3,4,6,7-tetrahydrothieno[3,2-d]pyrimidin-2-yl)thio)-N-(6-(trifluormethyl)benzo [d]thiazol-2-yl)acetamid]",IC50,M28FCK1δ (rat),120 nM
same,IC50,CK1δ (TV1),380 nM
same,IC50,CK1δ (TV2),510 nM
same,IC50,CK1δ (rat),160 nM
same,IC50,CK1ε,780 nM
same,Phenotypic changes (with severity) after treatment of zebrafish embryos with 20 µM inhibitor,"zebrafish embryos; 20 µM in medium, from 24 hpf",Yes (mild)
same,phenotype of treated zebrafish embryos,"zebrafish embryos; 20 µM, 24 to 72 hpf (48 h)",weak effect on heart development and function with a mild bradycardia and reduced heart rate; also recorded: a curved tail
O=S(=O)(NCCNC/C=C/c1ccc(Br)cc1)c1cccc2cnccc12 [H89],IC50,human PKCα,31200 nM
same,IC50,zebrafish PKCα,49800 nM
Fc1cccc(-n2cnc3c(NCc4nc5c(F)c(F)ccc5[nH]4)nc(N4CCOCC4)nc32)c1 [SR-3029],50% inhibitory concentration (IC50) values,CK1δ,double-digit nanomolar range
"csnk1da: morpholino-modified antisense oligonucleotide targeting the translational start site of csnk1da, 5′-TCGGTTTCCTACTCTCAATTCCATG-3′ (all phosphorodiamidate morpholino (PMO))",phenotype of morpholino injected embryos,csnk1da (CK1δA),reduced heart function resulting in blood congestion; also recorded: cardiac malfunction

# — PMC10518421, “Zebrafish as model system for the biological characterization of CK1 inhibitors” (Frontiers in Pharmacology, 2023)
